In patent US10204708B2, “System and method for deriving parameters for homeostatic feedback control of an individual” (Agency for Science, Technology and Research, priority 2012, dated 2019):

Key:
Type in all cases: in vivo, human
[1] = thyroid function test, thyroid-stimulating hormone [TSH] level of patient under treatment
Description: (§1) The method 10 is particularly suited to derive the hypothalamus pituitary (HP) characteristic of the individual. The HP characteristic of, the individual relates the level of thyroid-stimulating hormone [TSH] level in milliunits per liter (mU/L) and the corresponding free thyroxin [FT4] level in picomoles per liter (pmol/L) in the individual. In the following description, homeostatic measurements would be understood to refer to measurements of the level of [TSH] and corresponding [FT4] in an individual.
(§2) Each homeostatic measurement comprises a value of a [TSH] reading and a corresponding [FT4] reading. To determine the S and φ parameters for the individual, at least two well distinguishable homeostatic, measurements (i.e. ([FT4]1, [TSH]1) and ([FT4]2, [TSH]2)) from the individual are obtained with a predetermined time gap in between each measurement. The measurements are performed on samples taken near the same time of the day by the same analytical measurement method and ideally applied by one and the same person whenever feasible to minimise errors that can compromise the accuracy of the model estimates.
(§3) Preferably, the individual measurements are performed in a fasting condition and separated by 6 weeks while under medical treatment for a hypothyroidism or hyperthyroidism state with the replacement hormone for [T4] leading to a state of clinical euthyroidism.
(§4) Any method known for measuring homeostatic parameters would be suitable, for example, various types of chromatography, immunochemistry or other methods known to accurately measure the amount of a homeostatic expression product, as long as the same measurement method is applied by one and the same person.

[2] = thyroid function test, free thyroxin [FT4] level of patient under treatment
Description: as §1, §2, §3, §4

[3] = clinical course of hypothyroid Graves' disease patient on L-thyroxin; details: Example 3 patient, 75 mcg L-T4 daily
Description: They were thus started on L-thyroxin from day 456 at 25 mcg daily, and escalated to 50 mcg daily from day 715.

[4] = Example 1 patient, day 0, Rx CMZ 20
[5] = Example 1 patient, day 53, Rx CMZ 10
[6] = Example 1 patient, day 86, Rx CMZ 30
[7] = Example 1 patient, day 125, Rx CMZ 10
[8] = Example 1 patient, day 210, Rx LT4 50 (mcg daily), after radioiodine-131 ablation
[9] = Example 1 patient, day 269, Rx LT4 50 (mcg daily)
[10] = Example 6 patient, 1 Oct. 2007, LT4 100
[11] = Example 6 patient, 2 May 1997, LT4 25
[12] = Example 6 patient, 3 May 2005, LT4 75
[13] = Example 6 patient, 5 Oct. 2005, LT4 100
[14] = Example 6 patient, 6 May 2011, LT4 100
[15] = Example 6 patient, 10 Dec. 2010, LT4 100
[16] = Example 6 patient, 12 Feb. 2007, LT4 100
[17] = Example 6 patient, 14 May 2007, LT4 100
[18] = Example 6 patient, 16 Aug. 1999, LT4 50
[19] = Example 6 patient, 16 Mar. 2012, LT4 100
[20] = Example 6 patient, 17 Aug. 1998, LT4 50
[21] = Example 6 patient, 19 Oct. 2006, LT4 100
[22] = Example 6 patient, 21 Jun. 2006, LT4 100
[23] = Example 6 patient, 23 Jan. 2006, LT4 100
[24] = Example 6 patient, 24 Apr. 2002, LT4 50
[25] = Example 6 patient, 26 Oct. 1999, LT4 50
[26] = Example 6 patient, 28 Jul. 2008, LT4 100

CCOC(=O)n1ccn(C)c1=S [CMZ, carbimazole]
TSH [1, 4]: <0.01 mU/L | TSH [1, 5]: <0.01 mU/L | TSH [1, 6]: 0.005 mU/L | TSH [1, 7]: 0.02 mU/L | FT4 [2, 4]: 53.3 pmol/L | FT4 [2, 5]: 12.5 pmol/L | FT4 [2, 6]: 31.3 pmol/L | FT4 [2, 7]: 11 pmol/L

N[C@@H](Cc1cc(I)c(Oc2cc(I)c(O)c(I)c2)c(I)c1)C(=O)O [LT4, levothyroxin]
TSH [1, 8]: 9.05 mU/L | TSH [1, 9]: 0.12 mU/L | TSH [1, 10]: 4.34 mU/L | TSH [1, 11]: 8.64 mU/L | TSH [1, 12]: 6.67 mU/L | TSH [1, 13]: 1.10 mU/L | TSH [1, 14]: 0.99 mU/L | TSH [1, 15]: 0.41 mU/L | TSH [1, 16]: 2.65 mU/L | TSH [1, 17]: 1.72 mU/L | TSH [1, 18]: 4.96 mU/L | TSH [1, 19]: 2.20 mU/L | TSH [1, 20]: 8.71 mU/L | TSH [1, 21]: 2.43 mU/L | TSH [1, 22]: 1.48 mU/L | TSH [1, 23]: 2.18 mU/L | TSH [1, 24]: 2.32 mU/L | TSH [1, 25]: 3.03 mU/L | TSH [1, 26]: 3.12 mU/L | clinical outcome [3]: euthyroidism and resolution of all their hypothyroid symptoms | FT4 [2, 8]: 5 pmol/L | FT4 [2, 9]: 10 pmol/L | FT4 ([2]; Example 4 patient, radiation-induced thyroid failure, LT4 25 mcg once daily): about 10 pmol/L | FT4 [2, 10]: 11 pmol/L | FT4 [2, 11]: 11.5 pmol/L | FT4 [2, 12]: 13 pmol/L | FT4 [2, 13]: 16 pmol/L | FT4 [2, 14]: 17 pmol/L | FT4 [2, 15]: 18 pmol/L | FT4 [2, 16]: 15 pmol/L | FT4 [2, 17]: 14 pmol/L | FT4 [2, 18]: 12 pmol/L | FT4 [2, 19]: 15 pmol/L | FT4 [2, 20]: 10.6 pmol/L | FT4 [2, 21]: 12 pmol/L | FT4 [2, 22]: 13 pmol/L | FT4 [2, 23]: 14 pmol/L | FT4 [2, 24]: 13 pmol/L | FT4 [2, 25]: 14 pmol/L | FT4 [2, 26]: 13 pmol/L
